Data reported in ChEMBL document CHEMBL1201862, “PubChem BioAssay data set” (2004).
Active and inactive are the calls of the source. Rule as the data show it: actives have a measured IC50 and inactives only a lower limit.

Target: Envelope glycoprotein gp160 (Human immunodeficiency virus 1, UniProt Q6QLK5)
Assay: inhibitors of HIV fusion peptide binding, primary screen, biochemical, uHTS, fluorescence dequenching (AID 1986)

Chain of Envelope glycoprotein gp160 (Q6QLK5 whole entry, the tested form may be a part): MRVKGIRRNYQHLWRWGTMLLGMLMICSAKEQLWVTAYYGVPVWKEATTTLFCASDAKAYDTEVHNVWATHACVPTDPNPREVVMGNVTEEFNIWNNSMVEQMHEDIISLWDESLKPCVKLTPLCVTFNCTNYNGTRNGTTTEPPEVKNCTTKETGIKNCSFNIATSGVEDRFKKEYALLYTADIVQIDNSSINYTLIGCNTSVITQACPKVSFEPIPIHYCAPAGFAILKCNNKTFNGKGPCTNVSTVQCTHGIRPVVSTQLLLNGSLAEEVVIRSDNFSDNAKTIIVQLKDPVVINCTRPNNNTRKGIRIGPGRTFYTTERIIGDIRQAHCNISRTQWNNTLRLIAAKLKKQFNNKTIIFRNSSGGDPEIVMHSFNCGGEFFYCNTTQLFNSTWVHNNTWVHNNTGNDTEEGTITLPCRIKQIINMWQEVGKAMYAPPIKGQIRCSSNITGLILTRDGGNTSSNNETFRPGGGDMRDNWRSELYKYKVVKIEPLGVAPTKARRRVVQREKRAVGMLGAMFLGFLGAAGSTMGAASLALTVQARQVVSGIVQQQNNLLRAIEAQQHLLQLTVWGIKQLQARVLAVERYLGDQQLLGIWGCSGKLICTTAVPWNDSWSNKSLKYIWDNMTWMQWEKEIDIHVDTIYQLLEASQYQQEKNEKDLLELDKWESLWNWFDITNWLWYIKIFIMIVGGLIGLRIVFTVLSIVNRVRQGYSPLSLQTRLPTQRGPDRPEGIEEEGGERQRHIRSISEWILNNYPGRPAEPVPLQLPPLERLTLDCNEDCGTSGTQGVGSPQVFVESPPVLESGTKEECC

**Q.** For COc1ccc(C(=O)/C=C/c2ccc(-c3ccccc3)cc2)cc1CSCC(=O)O, which IC50 is on record?
**A.** 21.5 µM (active)
